# Measurements: PubChem BioAssay (NCI)
# Several values for one entry are separate records, joined by “and”; a condition that tells them apart may be missing. Equal entries are not always repeated.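 Following 48 hours of exposure in 96-well plates, responses at five concentrations were used to interpolate endpoints linearly. Here, GI50 denotes the concentration required for 50% inhibition of growth. TGI: concentration producing complete growth inhibition.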
# What was measured:
# Assay in all cases: NCI tumour cell line growth inhibition, 48 h
# [1] = system: T-47D breast
# [2] = system: DU-145 prostate
# [3] = system: RPMI-8226 leukemia
# [4] = system: MOLT-4 leukemia
# [5] = system: CAKI-1 renal
# [6] = system: U251 CNS
# [7] = system: 786-0 renal
# [8] = system: UO-31 renal
# [9] = system: BT-549 breast
# [10] = system: SK-OV-3 ovarian
smiles,measurement,setting,value
O=C(/C=C/c1ccccc1)c1cc(CN2CCOCC2)c(O)c(CN2CCOCC2)c1,TGI,[1],48 µM
same,TGI,[2],29.8 µM
same,TGI,[3],21.4 µM
same,TGI,[4],75.6 µM
same,TGI,[5],4.36 µM
same,TGI,[6],16.3 µM
same,TGI,[7],29 µM
same,TGI,[8],31.3 µM
same,TGI,[9],85.3 µM
Cc1cccc2c1nc1n2C(=O)c2ccccc2-1,TGI,[10],> 100 µM
same,TGI,[2],> 100 µM
same,TGI,[3],> 100 µM
same,TGI,[4],> 100 µM
same,TGI,[5],> 100 µM
same,TGI,[6],> 100 µM
same,TGI,[7],> 100 µM
same,TGI,[8],> 100 µM
same,TGI,[9],> 100 µM
O=C(O)C1CCC(=O)N1C(=O)COc1cc(Cl)c(Cl)cc1Cl (stereo not given),TGI,[10],> 100 µM
same,TGI,[5],> 100 µM
same,TGI,[6],> 100 µM
same,TGI,[8],> 100 µM
[C-]#[O+].[Cl][Sn]([Cl])[Cl].[Cl][Sn]([Cl])[Cl].[Pt].c1cnc2c(c1)ccc1cccnc12,TGI,[10],27.8 µM
same,TGI,[3],> 65.8 µM
same,TGI,[4],> 30.9 µM
same,TGI,[5],> 100 µM
same,TGI,[6],15 µM
same,TGI,[8],> 33.8 µM
C[n+]1c2ccccc2n2c3ccccc3c(NCCCn3ccnc3)c(C#N)c21,TGI,[1],> 19.6 µM
same,TGI,[10],38.8 µM
same,TGI,[2],15.5 µM
same,TGI,[4],> 35.7 µM
same,TGI,[5],> 43.1 µM
same,TGI,[6],> 33 µM
same,TGI,[7],10.6 µM
same,TGI,[8],42.6 µM
same,TGI,[9],> 100 µM
O=C1c2ccccc2-c2c1c1ccccc1c(=O)n2CCCNCCNCCCn1c2c(c3ccccc3c1=O)C(=O)c1ccccc1-2,GI50,[10],1.33 µM
same,TGI,[2],1.07 µM
same,GI50,[3],< 0.01 µM
same,TGI,[3],0.221 µM
same,GI50,[4],< 0.01 µM
same,TGI,[4],> 100 µM
same,GI50,[6],0.118 µM
same,TGI,[6],2.33 µM
same,GI50,[8],0.342 µM
CC(=O)O[C@H]1CC[C@@H](OC(C)=O)[C@H]2[C@H](O)[C@H](O)[C@@H]1n1c(=O)n(-c3ccccc3)c(=O)n12,TGI,[1],> 100 µM
same,TGI,[2],> 100 µM
same,TGI,[3],> 100 µM
same,TGI,[4],> 100 µM
same,TGI,[5],> 100 µM
same,TGI,[6],> 100 µM
same,TGI,[7],> 100 µM
same,TGI,[8],> 100 µM
same,TGI,[9],> 100 µM
O=C(/C=C\c1ccccc1)Oc1ccc(/C=C2\CCC/C(=C\c3ccc(OC(=O)/C=C\c4ccccc4)cc3)C2=O)cc1,TGI,[1],> 100 µM
same,TGI,[2],> 100 µM
same,TGI,[3],> 100 µM
same,TGI,[4],> 100 µM
same,TGI,[5],> 100 µM
same,TGI,[6],> 100 µM
same,TGI,[7],> 100 µM
same,TGI,[8],> 100 µM
same,TGI,[9],> 100 µM
Cc1ccc(NC(=O)CC/C(CC(=O)C(C)(C)C)=N/NC(=O)c2cc3ccccc3cc2O)cc1C,TGI,[10],> 100 µM
same,TGI,[4],> 100 µM
same,TGI,[5],> 100 µM
same,TGI,[6],> 100 µM
same,TGI,[8],> 100 µM
COc1cc(C=O)cc(C=Nc2ccc(Br)cc2)c1O,TGI,[1],> 100 µM
same,TGI,[10],7.83 µM
same,TGI,[2],> 100 µM
same,TGI,[3],21.8 µM
same,TGI,[4],62.4 µM
same,TGI,[5],42 µM
same,TGI,[6],> 100 µM
same,TGI,[8],50.6 µM
same,TGI,[9],> 100 µM
COc1ccc(O[C@H](CO)C[C@@H]2COC(C)(C)O2)cc1,TGI,[10],> 100 µM
same,TGI,[2],> 100 µM
same,TGI,[3],> 100 µM
same,TGI,[4],> 100 µM
same,TGI,[5],> 100 µM
same,TGI,[6],> 100 µM
same,TGI,[7],> 100 µM
same,TGI,[8],> 100 µM
same,TGI,[9],> 100 µM
CCOC(=O)N1CCNCCN(C(=O)OCC)CCNCC1,TGI,[1],> 100 µM
same,TGI,[2],> 100 µM
same,TGI,[3],> 100 µM
same,TGI,[4],> 100 µM
same,TGI,[5],> 100 µM
same,TGI,[6],> 100 µM
same,TGI,[7],> 100 µM
same,TGI,[8],> 100 µM
same,TGI,[9],> 100 µM
C/C(=N/NC(=S)Nc1ccc(C)cc1)c1ccccn1,TGI,[10],17 µM
same,TGI,[2],10.4 µM
same,TGI,[3],25.7 µM
same,TGI,[4],2.53 µM
same,TGI,[5],13.9 µM
same,TGI,[6],14.8 µM
same,TGI,[7],12.7 µM
same,TGI,[8],12.6 µM
same,TGI,[9],18.7 µM
Cc1ccc(S(=O)(=O)OCCN(CCOS(=O)(=O)c2ccc(C)cc2)c2ccc(C=O)cc2)cc1,TGI,[1],> 100 µM
same,TGI,[2],69.9 µM
same,TGI,[3],> 100 µM
same,TGI,[4],> 100 µM
same,TGI,[5],48.8 µM
same,TGI,[6],71.5 µM
same,TGI,[8],41.3 µM
same,TGI,[9],> 100 µM
COc1ccc(/C(C=O)=C(\Cl)c2ccc(OC)c(OC)c2)cc1,TGI,[10],> 100 µM
same,TGI,[3],> 100 µM
same,TGI,[4],> 100 µM
same,TGI,[5],> 100 µM
same,TGI,[6],> 100 µM
same,TGI,[8],> 100 µM
CC(C)(C)C(=O)c1c(O)c2ccccc2c2ccccc2c1=O,TGI,[1],> 100 µM
same,TGI,[10],> 100 µM
same,TGI,[2],> 100 µM
same,TGI,[4],> 100 µM
same,TGI,[5],> 100 µM
same,TGI,[6],> 100 µM
same,TGI,[7],> 100 µM
same,TGI,[8],> 100 µM
same,TGI,[9],91.6 µM
CN(C)c1cccc2c(S(=O)(=O)NCCN)cccc12,TGI,[1],> 100 µM
same,TGI,[10],> 100 µM
same,TGI,[2],> 100 µM
same,TGI,[4],> 100 µM
same,TGI,[5],> 100 µM
same,TGI,[6],> 100 µM
same,TGI,[7],> 100 µM
same,TGI,[8],> 100 µM
CCC12CCC[C@@]13C=C[C@H](O3)C(C)(C)C2=O (stereo not given in full),TGI,[10],> 100 µM
same,TGI,[3],> 100 µM
same,TGI,[4],> 100 µM
same,TGI,[5],> 100 µM
same,TGI,[6],> 100 µM
same,TGI,[8],> 100 µM
COC(=O)C(Cc1ccccc1)NC(=O)C(CNC(=O)OCc1ccccc1)C(=O)OCc1ccccc1 (stereo not given),TGI,[1],> 100 µM
same,TGI,[10],> 100 µM
same,TGI,[2],> 100 µM
same,TGI,[3],> 100 µM
same,GI50,[4],> 100 µM and 10.4 µM
same,TGI,[4],> 100 µM and 30.3 µM
same,TGI,[5],> 100 µM
same,TGI,[6],> 100 µM
same,TGI,[8],> 100 µM
same,TGI,[9],> 100 µM
CCc1c(O)nc(Nc2nc3ccccc3[nH]2)[nH]c1=O,TGI,[10],> 100 µM
same,TGI,[2],> 100 µM
same,TGI,[6],> 100 µM
same,TGI,[7],> 100 µM
same,TGI,[8],> 100 µM
same,TGI,[9],> 100 µM
CC[C@]1(c2ccc3c(c2)OCO3)C=[N+]([O-])O[C@H](OC2CCCC2(c2ccccc2)c2ccccc2)[C@@H]1OC(C)=O (stereo not given in full),TGI,[1],10.2 µM
same,TGI,[10],14.4 µM
same,TGI,[2],7.44 µM
same,TGI,[4],> 19.8 µM
same,TGI,[5],> 100 µM
same,TGI,[6],> 62.6 µM
same,TGI,[7],3.77 µM
same,TGI,[8],5.21 µM
same,TGI,[9],8.43 µM
NCCCNc1nc2ccccc2c2c(=O)c3cc(Cl)ccc3sc12,GI50,[10],1.58 µM
same,TGI,[10],3.48 µM
same,GI50,[2],1.84 µM
same,TGI,[2],3.27 µM
same,GI50,[5],1.49 µM
same,TGI,[5],2.86 µM
same,GI50,[8],1.28 µM
same,TGI,[8],2.58 µM
same,GI50,[9],13.5 µM
same,TGI,[9],46.2 µM
CC1=NC(=N)N=C(C)C1N=Nc1ccc2nc(C)[nH]c2c1 (stereo not given),TGI,[1],> 100 µM
same,TGI,[10],> 100 µM
same,TGI,[2],> 100 µM
same,TGI,[3],> 100 µM
same,TGI,[4],> 100 µM
same,TGI,[5],> 100 µM
same,TGI,[6],> 100 µM
same,TGI,[7],> 100 µM
same,TGI,[9],> 100 µM
O=C(Nc1ccc(-n2cc(-c3ccncc3)c(-c3ccc(O)c(Cl)c3)n2)cc1)Nc1cc(C(F)(F)F)cc(C(F)(F)F)c1,GI50,[1],3.28 µM
same,TGI,[1],10.7 µM
same,GI50,[2],5.97 µM
same,TGI,[2],18.9 µM
same,GI50,[3],2.81 µM
same,TGI,[3],9.95 µM
same,GI50,[4],4.29 µM
same,TGI,[4],18.3 µM
same,GI50,[5],3.34 µM
same,TGI,[5],12.8 µM
same,GI50,[6],2.98 µM
same,TGI,[6],12.4 µM
same,GI50,[8],1.94 µM
same,TGI,[8],12.6 µM
